In brackets after ≈: the same amount, converted by molar mass. Where two headings read alike, the source gives them in different places.
Tests used:
algaes native [1] = details: algaes native (fluorescence), Conrad (1993); cited from earlier work
[2] = system: Physically immobilised thylakoids; details: physically immobilised thylakoids (electrochemistry), Laberge (2000); cited from earlier work
[3] = system: stabilised thylakoid membranes; assay: Inhibition of photosynthetic efficiency of stabilised thylakoid membranes measured by fluorescence (F2-F1)/F2; type: biochemical, spinach
Excerpt: In a specific embodiment, a fluorometer continuously illuminates weakly the photosynthetic biological material with a light emitting diode (LED) emitting light at a wavelength of 475 or at 660 nm. Better results were obtained with the 475 nm wavelength. In order to obtain a higher sensitivity for measuring the photosynthetic response to toxic molecules, the intensity of the low excitation light was adjusted so as to obtain a F1 fluorescence level slightly higher than F0.
Fluorescence measured 2 sec after turning on one LED is F1. Three additional LEDs are then turned on so as to induce actinic illumination F2. Dispersion of LEDs is illustrated in FIG. 1. Light beams are oriented so as to form together a point of convergence precisely at the level where the photodiode is read. After a specific time, selected according to the nature of the thylakoid membranes used (eg. source of thylakoids, etc.) (Table 1), of the background noise and of the level of sensitivity sought, the F2 fluorescence is measured. To determine F1 and F2, the fluorometer measures wavelengths higher than 650 nm when the illumination is at 475 nm, and higher than 700 nm when illumination is at 660 nm.
The photosynthetic efficiency is determined with the following formula (F2−F1)/F2. Preferably, the photosynthetic efficiency of the stabilised thylakoids is 0.8±0.1. Any molecule affecting the photosystems modifies either F1 or F2 which modification necessarily disrupts (increases or decreases) the photosynthetic efficiency. The inhibition curve of a particular molecule is determined by calculating the activity of the photosystems in the absence of the molecule and in the presence of the molecule and comparing both efficiency as follows as described in Conrad 1993:
Without inhibitor (wi): efficiency(wi)=(F2(wi)−F1(wi))/F2(wi) With inhibitor: Relative photosynthetic efficiency(sample)=(F2(sample)−F1(sample))/F2(wi) Percentage efficiency: efficiency (%)=(efficiency(sample)×100)/efficiency(wi) Percentage inhibition: Inhibition (%)=100−efficiency (%)
The individual test tubes (100 μL lyophilised thylakoid membranes) were resuspended in 2 mL of water or tested samples. The concentrated batch of test tubes was resuspended in water, in Buffer 1 (HEPES-NaOH 50 mM pH 7.5 buffer containing sucrose 330 mM, MgCl2 20 mM, NH4Cl 10 mM, PEG 4000 4% (p/v)); or in Buffer 2 (phosphate buffer 0.1 M pH 6.5 containing sucrose 330 mM, NH4Cl 10 mM, MgCl2 20 mM, EDTA 10 mM, PEG 4000 4% (p/v)). A combination of buffered solutions 1 and 2 may also be used. […] These different buffers rs produce different results in the detection sensitivity (see Table 3 above). The final volume obtained depends on the quantity of lyophilised membranes used (2.5 mL for 25 tests, 5 mL for 50 tests).
Before use, the tubes containing stabilised thylakoid membranes were retrieved from storage. If they were stored in the freezer or the refrigerator, they were tempered 30 minutes at room temperature and in the dark. Two milliliters of fluid samples and the required volume of MgCl2 mother solution to get 0-10 mM MgCl2 (depending on tested samples) were added to 100 μL of the thylakoids membranes formulation at a concentration of 5 μg/mL. The tubes are then shook by inversion for 2 min. […]

PSII [4] = biological target: T1, PSII (Thermosynechococcus vestitus, UniProt P0A444); details: cited from earlier work
[5] = system: Chemically immobilised thylakoids; details: chemically immobilised thylakoids (electrochemistry), Laberge (1999); cited from earlier work
PSII [6] = biological target: T1, PSII; details: PSII Clark electrode (amperometry), Koblizek (2002), cited from earlier work
algaes native [7] = details: algaes native (fluorescence), Jay (1997); cited from earlier work
[8] = Buffer 1 + 5 mM MgCl2 (in cuvette)
[9] = membranes resuspended in Buffer 1
[10] = membranes resuspended in Buffer 2
[11] = stabilised thylakoid membranes of the present invention (fluorescence)

CCNc1nc(Cl)nc(NC(C)C)n1 [Atrazine]
IC50 (algaes native [1]): 150 µg/mL (≈ 695 µM) | IC50 [2]: 280 µg/mL (≈ 1300 µM) | Inhibition (%) ([3]; Biological apple juice, atrazine 0.01 μg/mL): 23% | Inhibition (%) ([3]; Biological apple juice, atrazine 0.1 μg/mL): 61% | Inhibition (%) ([3]; Biological apple juice, atrazine 4 μg/mL): 71% | IC50 [3, 8]: 0.04 µg/mL | Threshold [3, 8]: 0.001 mg/L | Inhibition (%) ([3]; Commercial apple juice (clear), pH 7, gravimetric filtration, atrazine 0.01 μg/mL): 15% | Inhibition (%) ([3]; Commercial apple juice (clear), pH 7, gravimetric filtration, atrazine 0.1 μg/mL): 60% | Inhibition (%) ([3]; Commercial apple juice (clear), pH 7, gravimetric filtration, atrazine 4 μg/mL): 74% | Inhibition (%) ([3]; Commercial apple juice (with pulp), pH 7, gravimetric filtration, atrazine 0.01 μg/mL): 23% | Inhibition (%) ([3]; Commercial apple juice (with pulp), pH 7, gravimetric filtration, atrazine 0.1 μg/mL): 58% | Inhibition (%) ([3]; Commercial apple juice (with pulp), pH 7, gravimetric filtration, atrazine 4 μg/mL): 65% | Inhibition (%) ([3]; Commercial apple juice, pH adjusted at 7, atrazine 0.01 μg/mL): 11% | Inhibition (%) ([3]; Commercial apple juice, pH adjusted at 7, atrazine 0.1 μg/mL): 61% | Inhibition (%) ([3]; Commercial apple juice, pH adjusted at 7, atrazine 4 μg/mL): 84% | Inhibition (%) ([3]; Water, atrazine 0.01 μg/mL): 16% | Inhibition (%) ([3]; Water, atrazine 0.1 μg/mL): 60% | Inhibition (%) ([3]; Water, atrazine 4 μg/mL): 80% | % effect ([3]; atrazine 0.001 mg/L): 4.2% | % effect ([3]; atrazine 0.004 mg/L): 14.9% | % effect ([3]; atrazine 0.04 mg/L): 55.3% | % effect ([3]; atrazine 0.1 mg/L): 69.4% | IC50 [3, 9]: 0.13 µg/mL | Threshold [3, 9]: 0.002 mg/L | IC50 [3, 10]: 0.33 µg/mL | Threshold [3, 10]: 0.002 mg/L | calculated inhibition ([3]; sample with initial concentration of 4 mg/L of atrazine): 64.8% | detection threshold ([3]; some of the thylakoid membranes preparations): 1 ppb | IC50 [3, 11]: 40 µg/mL | Threshold [3, 11]: 0.001 mg/L | IC50 (PSII [4]): 88.1 µM | IC50 [5]: 330 µg/mL (≈ 1530 µM) | Threshold [5]: 0.01 to 0.05 mg/L | IC50 (PSII [6]): 301 µM | Threshold (PSII [6]): 0.0004 mg/L | IC50 (algaes native [7]): 62 µg/mL (≈ 287 µM) | Threshold (algaes native [7]): 0.009 mg/L

CC(C)N1C(=O)c2ccccc2NS1(=O)=O [Bentazon]
IC50 [3, 8]: >4 µg/mL | Threshold [3, 8]: >4 mg/L | IC50 [3, 9]: >4 µg/mL | Threshold [3, 9]: 2 mg/L | IC50 [3, 10]: >4 µg/mL | Threshold [3, 10]: 1.22 mg/L

N#Cc1cc(Br)c(O)c(Br)c1 [Bromoxynil]
IC50 [3, 8]: >0.1 µg/mL | Threshold [3, 8]: >0.1 mg/L | IC50 [3, 9]: 0.443 µg/mL | Threshold [3, 9]: 0.013 mg/L | IC50 [3, 10]: 0.414 µg/mL | Threshold [3, 10]: 0.06 mg/L

O=C([O-])[O-].[Ca+2] [CaCO3]
Effect (inhibition or stimulation) on thylakoid membranes [3]: Stimulation

CCNc1nc(Cl)nc(NC(C)(C)C#N)n1 [Cyanazine]
IC50 [2]: 310 µg/mL (≈ 1290 µM) | IC50 [3, 8]: 0.028 µg/mL | Threshold [3, 8]: 0.0006 mg/L | IC50 [3, 9]: 0.009 µg/mL | Threshold [3, 9]: 0.002 mg/L | IC50 [3, 10]: 0.135 µg/mL | Threshold [3, 10]: 0.013 mg/L | IC50 [3, 11]: 40 µg/mL | IC50 [5]: 79 µg/mL (≈ 328 µM)

CCNc1nc(N)nc(Cl)n1 [Deisopropyl atrazine]
IC50 [3, 8]: >0.1 µg/mL | Threshold [3, 8]: >0.1 mg/L | IC50 [3, 9]: >1 µg/mL | Threshold [3, 9]: 0.2 mg/L | IC50 [3, 10]: >4 µg/mL | Threshold [3, 10]: 1.26 mg/L

CC(C)Nc1nc(N)nc(Cl)n1 [Desethyl atrazine]
IC50 [3, 8]: 1.1 µg/mL | Threshold [3, 8]: 0.2 mg/L | IC50 [3, 9]: 1.08 µg/mL | Threshold [3, 9]: 0.013 mg/L | IC50 [3, 10]: 2.31 µg/mL | Threshold [3, 10]: 0.2 mg/L

CN(C)C(=O)Nc1ccc(Cl)c(Cl)c1 [Diuron]
IC50 (algaes native [1]): 959 µg/mL (≈ 4110 µM) | IC50 [2]: 130 µg/mL (≈ 558 µM) | IC50 [3, 8]: 0.011 µg/mL | Threshold [3, 8]: 0.002 mg/L | IC50 [3, 9]: 0.022 µg/mL | Threshold [3, 9]: 0.0006 mg/L | IC50 [3, 10]: 0.02 µg/mL | Threshold [3, 10]: <0.001 mg/L | IC50 [3, 11]: 71 µg/mL | Threshold [3, 11]: 0.002 mg/L | IC50 (PSII [4]): 686 µM | IC50 [5]: 120 µg/mL (≈ 515 µM) | Threshold [5]: 0.01 mg/L | Threshold (PSII [6]): 0.0001 mg/L | IC50 (PSII [6]; read-out: IC50 (converted)): 81.5 µM | IC50 (algaes native [7]): 12 µg/mL (≈ 51.5 µM) | Threshold (algaes native [7]): 0.002 mg/L

OO [H2O2]
Effect (inhibition or stimulation) on thylakoid membranes [3]: Inhibition

[Hg+2] [Hg]
IC50 ([3]; incubation time 15 min): 2.5 µg/mL | Threshold limit value ([3]; incubation time 15 min): 0.7 mg/L | IC50 ([3]; incubation time 30 min): 2.0 µg/mL | Threshold limit value ([3]; incubation time 30 min): 0.35 mg/L | IC50 ([3]; incubation time 60 min): 2.0 µg/mL | Threshold limit value ([3]; incubation time 60 min): 0.35 mg/L

[Cl-].[Na+] [NaCl]
Effect (inhibition or stimulation) on thylakoid membranes [3]: Stimulation

[Ni+2] [Ni]
IC50 ([3]; incubation time 15 min): >100 µg/mL | Threshold limit value ([3]; incubation time 15 min): 35 mg/L | IC50 ([3]; incubation time 30 min): >100 µg/mL | Threshold limit value ([3]; incubation time 30 min): 7.1 mg/L | IC50 ([3]; incubation time 60 min): >100 µg/mL | Threshold limit value ([3]; incubation time 60 min): 7.1 mg/L

CCCCCCCC/C=C\CCCCCCCC(=O)O [Oleic acid]
Effect (inhibition or stimulation) on thylakoid membranes [3]: Inhibition

CCC(=O)Nc1ccc(Cl)c(Cl)c1 [Propanil]
IC50 [3, 8]: 0.068 µg/mL | Threshold [3, 8]: 0.0006 mg/L | IC50 [3, 9]: 0.179 µg/mL | Threshold [3, 9]: 0.002 mg/L | IC50 [3, 10]: 0.221 µg/mL | Threshold [3, 10]: 0.013 mg/L

CCNc1nc(Cl)nc(NCC)n1 [Simazine]
IC50 [3, 8]: 0.942 µg/mL | Threshold [3, 8]: 0.06 mg/L | IC50 [3, 9]: 0.028 µg/mL | Threshold [3, 9]: 0.002 mg/L

CCCCCCCCCCCCCCCCCC(=O)O [Stearic acid]
Effect (inhibition or stimulation) on thylakoid membranes [3]: Stimulation

[Zn+2] [Zn]
IC50 ([3]; incubation time 15 min): >100 µg/mL | Threshold limit value ([3]; incubation time 15 min): 16 mg/L | IC50 ([3]; incubation time 30 min): 70 µg/mL | Threshold limit value ([3]; incubation time 30 min): 16 mg/L | IC50 ([3]; incubation time 60 min): 34 µg/mL | Threshold limit value ([3]; incubation time 60 min): 7.1 mg/L

Ammoniacal nitrogen
Effect (inhibition or stimulation) on thylakoid membranes [3]: Stimulation

Nitrates
Effect (inhibition or stimulation) on thylakoid membranes [3]: Weak inhibition

Phosphates
Effect (inhibition or stimulation) on thylakoid membranes [3]: Stimulation

— patent US8303907B2, “Biosensors, and method and kits for using same” (priority 2002, dated 2012)
